Laboratory results reported in patent publication US9226928B2, “Spirocyclic isoxazoline parasiticidal combinations” (Zoetis Services LLC, priority 2012, dated 2016).
Where two headings read alike, the source gives them in different places.

Legend:
[1] = test system: Haemonchus contortus L3 susceptible strain; assay: In vitro motility assay, H. contortus L3 susceptible strain; format: cell-based
flea (C. felis) = assay: In-vitro flea feeding assay; format: cell-based, Ctenocephalides felis; settings: for lowest MED alone (lowest dose to cause mortality ≧50%) / control MED dose levels alone (triple combination assay): compound alone; for lowest MED alone (lowest dose to cause mortality ≧50%): 24 hours blood feeding; for control MED dose levels alone (triple combination assay): controls of the triple combination assay
[2] = test system: tick (O. turicata, Zoetis strain); assay: In-vitro tick feeding assay; format: cell-based, Ornithodoros turicata; settings: for MED (lowest dose to cause paralysis ≧50%): at 24, 28, and 72 hours post feeding
C. felis fleas = assay: Efficacy against fleas in dogs; settings: all time points (Days 1-35); same groups
Protocol: Each dog was infested with approximately 100 unfed viable adult C. felis fleas on Days −1, 6, 13, 20, 27, and 34. Efficacy was assessed by comb counts of live fleas on Days 1, 7, 14, 21, 28, and 35. Efficacy was determined as the % reduction in geometric mean live flea counts versus placebo.

[3] = test system: D. immitis (L3 inoculation, adult worm recovery); assay: Prevention of heartworm disease in dogs; settings: in vivo, po
[4] = Combination pharmacokinetics in fed dogs; settings: dog, in vivo, sampling to 28 days
[5] = test system: Dirofilaria immitis microfilariae (MF), Michigan strain; assay: In vitro motility assay, D. immitis microfilariae
Protocol: Antiparasitic compounds were dissolved in DMSO and were spotted into the well of a 384 well microtiter plate. Nematodes in a buffered solution were added to the plates and motility measured at 96 hours for the H. contortus strains and 72 hours for D. immitis. […] MED was subjective based on visual assessment using light microscopy and was the lowest dose to cause a significant decrease in motility. Concentrations at ½ log below the MED were used alone and in combination and were read on the LemnaTec Scanalyzer to provide a quantitative percent motility compared to the negative control.
Material and method for the Dirofilaria immitis in vitro assay: Dirofilaria immitis MF were purified from microfilaremic canine blood by erythrocyte lysis and filtration and maintained in a cell culture media fortified with fetal bovine serum and antibiotics. […] The motility assessment was performed after 72 hours of incubation at 37° C. and 5% CO2 on a LemnaTec Scanalyzer which determined motility of the MF by image analysis.

[6] = minimum efficacious dose, visual motility assessment, 96 hours
[7] = vs untreated control, 96 hours, LemnaTec, moxidectin 0.1 μM, pyrantel 10 μM, Compound A 100 μM, alone or combined
[8] = minimum efficacious dose, visual motility assessment, 72 hours
[9] = vs untreated control, 72 hours, LemnaTec, moxidectin 3.3 μM, pyrantel 33 μM, Compound A 10 μM, alone or combined (triple row prints 100 μM Compound A)

SMILES | % Motility [1] [%] | H. contortus L3 susceptible MED [1] [µM] | lowest MED alone (lowest dose to cause mortality ≧50%) (flea (C. felis)) [mM] | control MED dose levels alone (triple combination assay) (flea (C. felis)) [mM] | MED (lowest dose to cause paralysis ≧50%) [2] [µg/mL] | Percentage reductions in geometric and arithmetic mean live flea counts compared with placebo (C. felis fleas) [%] | geometric mean adult D. immitis worm count [3] | AUC ([4]; dosed alone: Compound A 2 mg/kg, moxidectin 0.25 μg/kg, pyrantel pamoate 5 mg/kg) [µg·h/mL] | AUC ([4]; the three compounds dosed simultaneously) [µg·h/mL] | % Motility [5] [%] | D. immitis MED [5] [µM] | H. contortus L3 susceptible MED [1, 6] [µM] | % Motility [1, 7] [%] | D. immitis MED [5, 8] [µM] | % Motility [5, 9] [%] | effect on fleas (flea (C. felis); highest dose tested (300 mM)) | effect on ticks ([2]; at a rate of 3 or 30 ug/mL)
CS(=O)(=O)CC(=O)N1CC2(C1)OCc1cc(C3=NO[C@@](c4cc(Cl)c(F)c(Cl)c4)(C(F)(F)F)C3)ccc12 [Compound A, (S)-1-(5′-(5-(3,5-dichloro-4-fluorophenyl)-5-(trifluoromethyl)-4,5-dihydroisoxazol-3-yl)-3′H-spiro[azetidine-3,1′-isobenzofuran]-1-yl)-2-(methylsulfonyl)ethanone] | 76.0 | >100 | 0.0001 | 0.3 | 0.01 | 100 | 30.3 worms recovered from each dog | 202 | 206 | 50.9 | 33 |  |  |  |  |  | 
CO/N=C1\C[C@]2(C[C@@H]3C[C@@H](C/C=C(\C)C[C@@H](C)/C=C/C=C4\CO[C@@H]5[C@H](O)C(C)=C[C@@H](C(=O)O3)[C@]45O)O2)O[C@H](/C(C)=C/C(C)C)[C@H]1C [Moxidectin, moxidectin] |  |  | 0.01 | 10 | 0.03 |  |  |  |  |  |  | 0.3 | 95.0 | 10 | 62.0 |  | 
CN1CCCN=C1/C=C/c1cccs1 [Pyrantel, pyrantel pamoate] |  |  |  | > 300 |  |  |  |  |  |  |  | 33 | 95.6 | 100 | 77.8 | no effect | no effect
